Laboratory results from ChEMBL document CHEMBL1201862, “PubChem BioAssay data set” (2004).
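Each compound was tested at five concentrations against cells in 96-well plates for 48 hours. Here, GI50 denotes the concentration required for 50% inhibition of growth.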 Calls of active or inactive are those of the source. No stated cut-off is given here; in the data, active = GI50 up to about 1.1 µM and inactive = higher.

Legend:
Assay in all cases: DTP human tumour cell line panel, 48 h
786-0 = test system: 786-0
UACC-257 = test system: UACC-257
T47D = test system: T47D
DU-145 = test system: DU-145
SK-MEL-5 = test system: SK-MEL-5
HOP-62 = test system: HOP-62
OVCAR-5 = test system: OVCAR-5
RPMI-8226 = test system: RPMI-8226
KM12 = test system: KM12
HL-60 = test system: HL-60
U-251 = test system: U-251
SNB-75 = test system: SNB-75
SF-295 = test system: SF-295
SR = test system: SR
NCI-H226 = test system: NCI-H226
SK-OV-3 = test system: SK-OV-3
SK-MEL-2 = test system: SK-MEL-2
A549 = test system: A549
MCF7 = test system: MCF7
K562 = test system: K562

Row | SMILES | GI50 (786-0) | GI50 (UACC-257) | GI50 (T47D) | GI50 (DU-145) | GI50 (SK-MEL-5) | GI50 (HOP-62) | GI50 (OVCAR-5) | GI50 (RPMI-8226) | GI50 (KM12) | GI50 (HL-60) | GI50 (U-251) | GI50 (SNB-75) | GI50 (SF-295) | GI50 (SR) | GI50 (NCI-H226) | GI50 (SK-OV-3) | GI50 (SK-MEL-2) | GI50 (A549) | GI50 (MCF7) | GI50 (K562)
1 | Cc1ccc(CN2CCN(Cc3ccc(C)o3)C(C)C2)o1 (stereo not given) | > 100 µM (inactive) | > 100 µM (inactive) | > 100 µM (inactive) | > 100 µM (inactive) | > 100 µM (inactive) | > 100 µM (inactive) | > 100 µM (inactive) | > 100 µM (inactive) | > 100 µM (inactive) | > 100 µM (inactive) | > 100 µM (inactive) | > 100 µM (inactive) | > 100 µM (inactive) | > 100 µM (inactive) | > 100 µM (inactive) | > 100 µM (inactive) | > 100 µM (inactive) | > 100 µM (inactive) | > 100 µM (inactive) | > 100 µM (inactive)
2 | COc1cc2ccccc2c2cc([N+](=O)[O-])oc12 | 0.374 µM (active) | 0.179 µM (active) | 5.36 µM (inactive) | 0.265 µM (active) | 0.0948 µM (active) | 3.37 µM (inactive) | 3.39 µM (inactive) | 0.619 µM (active) | 1.43 µM (inactive) | 5.26 µM (inactive) | 1.17 µM (inactive) | 2.62 µM (inactive) | 1.39 µM (inactive) | 0.0859 µM (active) | 1.11 µM (active) | 0.49 µM (active) | 0.197 µM (active) | 0.294 µM (active) | 0.35 µM (active) | 0.319 µM (active)
3 | CN1C(C)(C)CC(=O)C(Br)C1(C)C (stereo not given) | > 100 µM (inactive) | > 100 µM (inactive) | > 100 µM (inactive) | > 100 µM (inactive) | > 100 µM (inactive) | > 100 µM (inactive) | > 100 µM (inactive) | > 100 µM (inactive) | > 100 µM (inactive) | > 100 µM (inactive) | > 100 µM (inactive) | 61.8 µM (inactive) | > 100 µM (inactive) | > 100 µM (inactive) | > 100 µM (inactive) | > 100 µM (inactive) | > 100 µM (inactive) | > 100 µM (inactive) | > 100 µM (inactive) | > 100 µM (inactive)
4 | COCC1OC(OC2C3=C(C(C)C)CCC3(C)/C=C3\C(CCC3(O)COC)C(C)C2O)C(O)C2OC3OC12OC3(C)C1CO1 (stereo not given) | 60.8 µM (inactive) | 40.3 µM (inactive) | 29.4 µM (inactive) | 72.6 µM (inactive) | 18 µM (inactive) | 89.5 µM (inactive) | > 100 µM (inactive) | 27.2 µM (inactive) | 52.8 µM (inactive) | 16.3 µM (inactive) | 24 µM (inactive) | 21.7 µM (inactive) | 31.7 µM (inactive) | 41.8 µM (inactive) | 16.3 µM (inactive) | 51.8 µM (inactive) | 83.6 µM (inactive) | 53.8 µM (inactive) | 45.5 µM (inactive) | 25.1 µM (inactive)
5 | O=S(=O)(Cc1nc2ccccc2s1)c1nc2ccccc2s1 | 17.4 µM (inactive) | 15.8 µM (inactive) | 21.3 µM (inactive) | 17.9 µM (inactive) | 12.9 µM (inactive) | 49.3 µM (inactive) | 20 µM (inactive) | 16 µM (inactive) | 18.2 µM (inactive) | 8.11 µM (inactive) | 18.5 µM (inactive) | 18.3 µM (inactive) | 26.2 µM (inactive) | 4.72 µM (inactive) | 26.5 µM (inactive) | 37 µM (inactive) | 17.4 µM (inactive) | 29.3 µM (inactive) | 18.7 µM (inactive) | 12.6 µM (inactive)
6 | C/C(=N\NC(=S)N(C)CCN(C)C(=S)N/N=C(\C)c1ccccn1)c1ccccn1 | > 100 µM (inactive) | 0.774 µM (active) | 1.84 µM (inactive) | 1.11 µM (active) | 0.431 µM (active) | 1.67 µM (inactive) | 5.9 µM (inactive) | 1.37 µM (inactive) | 0.435 µM (active) | 0.365 µM (active) | 0.745 µM (active) | 0.56 µM (active) | 0.805 µM (active) | 0.697 µM (active) | 0.316 µM (active) | 4.21 µM (inactive) | 10.1 µM (inactive) | 2.37 µM (inactive) | 2.77 µM (inactive) | 1.55 µM (inactive)
